The values that follow come from paper PMC10201506 (Signal Transduction and Targeted Therapy, 2023).

Assay [1] deals with SARS-CoV-2 Delta variant. The experiment in a line: microbe, parasite or virus in culture. Type of assay: cell-based. Conditions: Severe acute respiratory syndrome coronavirus 2, Vero C1008, 24 h, read-out: EC50 Delta variant replication.
The test system of assay [2] is SARS-CoV-2 Omicron BA.1 variant. The experiment in a line: microbe, parasite or virus in culture. Type of assay: cell-based. The following applies: Severe acute respiratory syndrome coronavirus 2, Vero C1008, 24 h, read-out: EC50 Omicron BA.1 variant replication.
Assay [3] concerns SARS-CoV-2 delta variant. The arrangement: species or system K18-hACE2 mice. The following applies: mouse, in vivo.

As to `O=C(c1cc(=O)[nH]c2ccccc12)N1CCN(c2ccc(Cl)c(Cl)c2)CC1CN1CCOCC1` (centres unmarked) [JZD-07, 4-(4-(3,4-Dichlorophenyl)-2-(morpholinomethyl)piperazine-1-carbonyl)quinolin-2(1H)-one], the EC50 in the assay with SARS-CoV-2 Delta variant [1] was 7.24 µM. The EC50 in assay [2] was determined as 6.03 µM. Besides, in the assay with SARS-CoV-2 delta variant [3], the “immunohistochemistry staining of viral nucleocapsid protein in lungs” value is reported as “suppressed viral titer in mice lungs”, the “reduction of viral copy loads of the lung vs vehicle” value is listed as around 1.0 log and the “reduction of viral titers of the lung vs vehicle” value is 2.0 log.
